48 compounds from patent publication US11780845B2 (Relay Therapeutics, Inc., priority 2019, dated 2023) can be followed below.

The target in experiment [1] is FGFR2 (Homo sapiens (Human), UniProt P21802). Nature of the experiment: Biochemical FGFR2 Caliper assay.
Experiment [2] deals with SNU-16. Nature of the experiment: Cell SNU-16 assay. The experiment is classed as cell-based.
Where [3] appears, read: Homo sapiens, SNU-16, SNU-16 cells.

Molecules are shown by their SMILES.

Sequence of FGFR2 (P21802 22-821): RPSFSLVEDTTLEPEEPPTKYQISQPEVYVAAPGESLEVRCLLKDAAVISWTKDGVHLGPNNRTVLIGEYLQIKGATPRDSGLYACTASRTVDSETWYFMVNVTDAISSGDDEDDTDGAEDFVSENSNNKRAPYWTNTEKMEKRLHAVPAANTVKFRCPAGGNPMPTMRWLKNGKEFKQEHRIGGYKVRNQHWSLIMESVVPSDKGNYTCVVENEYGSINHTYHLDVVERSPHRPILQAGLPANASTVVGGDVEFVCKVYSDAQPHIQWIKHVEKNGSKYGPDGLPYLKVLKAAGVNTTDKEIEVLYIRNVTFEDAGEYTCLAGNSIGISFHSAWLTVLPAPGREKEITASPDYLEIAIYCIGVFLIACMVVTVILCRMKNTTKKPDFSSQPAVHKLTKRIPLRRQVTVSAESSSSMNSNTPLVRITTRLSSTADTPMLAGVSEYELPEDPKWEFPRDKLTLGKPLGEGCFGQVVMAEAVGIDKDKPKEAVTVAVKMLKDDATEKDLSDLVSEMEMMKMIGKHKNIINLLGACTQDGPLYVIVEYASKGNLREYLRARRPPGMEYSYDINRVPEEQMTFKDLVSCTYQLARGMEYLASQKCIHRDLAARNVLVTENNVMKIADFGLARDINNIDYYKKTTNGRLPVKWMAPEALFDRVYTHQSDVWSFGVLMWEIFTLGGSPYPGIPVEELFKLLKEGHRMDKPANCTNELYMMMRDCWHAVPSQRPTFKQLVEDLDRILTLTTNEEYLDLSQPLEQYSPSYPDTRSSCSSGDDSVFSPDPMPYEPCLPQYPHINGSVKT

For `C#Cc1ncc2cc(-c3c(-c4ccc(Oc5nccc(C)n5)c(F)c4)c4c(N)ncnc4n3C)n(C)c2n1` [Example 1411], the results for the IC50 in experiment [1] and in experiment [2] (setting [3]) were less than 100 nM and no more than 100 nM, respectively.

In the case of `C#Cc1cc2ccc(-c3c(-c4ccc(Oc5nccc(C)n5)c(F)c4)c4c(N)ncnc4n3C)cc2cn1` [Example 1404], the IC50 in experiment [1] and in experiment [2] (setting [3]) was 250 to 1000 nM each time.

As to `C=C(C)C(=O)Nc1ccc(-c2cn3ncnc(N)c3c2-c2ccc(C(=O)NCC(F)(F)F)cc2)cc1` [Example 823], the IC50 in experiment [1] was in the range of 100 to 250 nM; in experiment [2] (setting [3]) it was 250 to 1000 nM.

`C#Cc1ccc2cc(-c3c(-c4ccc(Oc5nccc(C)n5)c(F)c4)c4c(N)ncnc4n3C)ccc2n1` [Example 1405]: the IC50 in experiment [1] was less than 100 nM; in experiment [2] (setting [3]), no more than 100 nM.

Regarding `C=C(C)C(=O)Nc1ccc(-c2c(C3=CC[C@@H](C(=O)N4CCCC4)C[C@H]3C)c3c(N)ncnc3n2C)cc1` (single isomer, unassigned) [Example 936], the 50% inhibitory concentration (IC50) is 1000 to 100000 nM in experiment [1] and 250 to 1000 nM in experiment [2] (setting [3]).

Regarding `C#Cc1ncc(-c2c(-c3ccc(Oc4nccc(C)n4)c(Cl)c3)c3c(N)ncnc3n2C)c(C)c1F` [Example 1264], the IC50 in experiment [1] is less than 100 nM; in experiment [2] (setting [3]), no more than 100 nM.

As for `C=CC(=O)Nc1ccccc1-c1c(-c2ccc(Oc3cccc(C)n3)cc2)c2c(N)ncnc2n1C` [Example 1082], the IC50 in experiment [1] was less than 100 nM; in experiment [2] (setting [3]) it was no more than 100 nM.

`C=CC(=O)N[C@@H]1CC=C(c2c(-c3ccc(Oc4nccc(C)n4)c(F)c3)c3c(N)ncnc3n2C)CC1` [Example 1376]: the IC50 in experiment [1] was 250 to 1000 nM; in experiment [2] (setting [3]), 100 to 250 nM.

Regarding `C=CC(=O)Nc1cccc(-c2c(-c3ccc(C(=O)NCC4(F)COC4)cc3)c3c(N)ncnc3n2C)c1` [Example 1030], the IC50 in experiment [1] was less than 100 nM; in experiment [2] (setting [3]), no more than 100 nM.

For `C#Cc1cc(C)c(-c2c(-c3ccc(Oc4nccc(C)n4)c(F)c3)c3c(Cl)ncnc3n2C)c(F)n1` [Example 1416], the IC50 was less than 100 nM in experiment [1] and 100 to 250 nM in experiment [2] (SNU-16 cells).

As to `C#Cc1ccc(-c2c(C3=CC[C@@H](C(=O)N4CCC[C@H]4COC)CC3)c3c(N)ncnc3n2C)c(C)n1` (single isomer, unassigned) [Example 1211], the IC50 in experiment [1] was less than 100 nM; in experiment [2] (setting [3]), 100 to 250 nM.

On to `C=CC(=O)N1CC(c2c(-c3ccc(Oc4cccc(C)n4)cc3)c3c(N)ncnc3n2C)C[C@@H]1CO` (stereo partly drawn) [Example 819], for which the IC50 in experiment [1] and in experiment [2] (setting [3]) was 250 to 1000 nM each time.

`C=C1CCN(c2ccc(-c3c(C4=CC[C@@H](C(=O)N5CCCC5)CC4)c4c(C)ncnc4n3C)c(Cl)c2)C1=O` (single isomer, unassigned) [Example 1140]: the half-inhibitory concentration (IC50) in experiment [1] is less than 100 nM; in experiment [2] (setting [3]), no more than 100 nM.

Turning to `C#Cc1cc(C)c(-c2c(C3=CC[C@@H](C(=O)N4CCC[C@H]4C#N)CC3)c3c(N)ncnc3n2C)c(C)n1` (atropisomer, axis not shown) [Example 1471], the half-maximal inhibitory concentration (IC50) is less than 100 nM in experiment [1] and no more than 100 nM in experiment [2] (setting [3]).

On to `C#Cc1cc(C)c(-c2c(-c3ccc(Oc4nc(C)cc(C)n4)c(F)c3)c3c(N)ncnc3n2C)cn1` [Example 1368], for which the IC50 in experiment [1] was less than 100 nM; in experiment [2] (setting [3]), no more than 100 nM.

On to `C=C1C(=O)N(c2ccc(-c3c(-c4ccc(Oc5nccc(C)n5)cc4)c4c(N)ncnc4n3C)cc2)CC1(C)C` [Example 1088], for which the half-inhibitory concentration (IC50) in experiment [1] fell in the range of 1000 to 100000 nM; in experiment [2] (setting [3]), 250 to 1000 nM.

As to `C#Cc1cc(C)c(-c2c(-c3ccc(Oc4nccc(C)n4)c(F)c3)c3c(N)ncnc3n2[C@H]2C[C@H](O)C2)cn1` (atropisomer, axis not shown) [Example 1357], the IC50 in experiment [1] was less than 100 nM; in experiment [2] (setting [3]), no more than 100 nM.

Turning to `C#Cc1cc2c(cn1)-c1c(-c3ccc(Oc4nccc(C)n4)c(F)c3)c3c(N)ncnc3n1CCO2` [Example 1440], the IC50 was less than 100 nM in experiment [1] and no more than 100 nM in experiment [2] (setting [3]).

In the case of `C#Cc1cc(C)c(-c2c(C3=CC[C@H](C(=O)N4CCC[C@H]4COC)CC3)c3c(N)ncnc3n2C)cn1` (single isomer, unassigned) [Example 1205], the IC50 in experiment [1] and in experiment [2] (setting [3]) was 250 to 1000 nM throughout.

As to `C#Cc1cc(OC)c(-c2c(C3=CC[C@H](C(=O)N4CCC[C@H]4C#N)CC3)c3c(C)ncnc3n2C)c(C)n1` [Example 1473], the IC50 in experiment [1] was less than 100 nM; in experiment [2] (setting [3]), no more than 100 nM.

For the compound `C=CC(=O)N1CCC(c2c(-c3ccc(OC4CC4)nc3)c3c(N)ncnc3n2C)C1` (stereo not drawn) [Example 804], the IC50 in experiment [1] lay within 100 to 250 nM; in experiment [2] (setting [3]) it was 1000 to 100000 nM.

As for `C#Cc1ccc(-c2c(C3=CC[C@@H](C(=O)N4CCC[C@H]4C#C)CC3)c3c(N)ncnc3n2C)c(C)n1` (single isomer, unassigned) [Example 1230], the IC50 in experiment [1] is less than 100 nM; in experiment [2] (setting [3]), no more than 100 nM.

On to `C#Cc1ncc(-c2c(-c3ccc(C(=O)NCC(F)(F)F)c(OC)c3)c3c(N)ncnc3n2C)c(C)c1F` [Example 1260], for which the half-inhibitory concentration (IC50) is less than 100 nM in experiment [1] and no more than 100 nM in experiment [2] (setting [3]).

`C#Cc1ncc(-c2c(C3=CC[C@@H](C(=O)N4CCCC4)CC3)c3c(N)ncnc3n2C)c(C)c1F` (single isomer, unassigned) [Example 1329]: the IC50 is 250 to 1000 nM in experiment [1] and 100 to 250 nM in experiment [2] (setting [3]).

With `C=C(C)C(=O)Nc1ccc(-c2c(C3=CC[C@@H](C(=O)N4CCCC45CCC5)CC3)c3c(N)ncnc3n2C)cc1` [Example 998], the results for the IC50 in experiment [1] and in experiment [2] (setting [3]) were less than 100 nM and no more than 100 nM, respectively.

On to `C#Cc1ncc(-c2c(-c3ccc(Oc4nccc(C)n4)cc3)c3c(N)ncnc3n2C)cn1` [Example 1117], for which the half-inhibitory concentration (IC50) is 100 to 250 nM in experiment [1] and no more than 100 nM in experiment [2] (SNU-16 cells).

In the case of `C#Cc1cc(C)c(-c2c(-c3ccc(Oc4nccc(C)n4)c(F)c3)c3c(N)ncnc3n2C)cn1` [Example 1119], the IC50 lay in the range of 1000 to 100000 nM in experiment [1] and 250 to 1000 nM in experiment [2] (SNU-16 cells).

`C=C(C)C(=O)Nc1ccc(-c2cn3ncnc(N)c3c2-c2ccc(Oc3ncc(F)cn3)c(F)c2)cc1` [Example 827]: the IC50 in experiment [1] and in experiment [2] (setting [3]) was 1000 to 100000 nM in each case.

As to `C=C(C)C(=O)Nc1cccc(-c2c(-c3ccc(C(=O)NCC4(F)COC4)cc3)c3c(N)ncnc3n2C)c1` [Example 1021], the IC50 in experiment [1] is less than 100 nM; in experiment [2] (setting [3]) it was no more than 100 nM.

As to `C=CC(=O)Nc1ccc(-c2c(-c3ccc(C(=O)NCC4(F)COC4)cc3)c3c(N)ncnc3n2C)cc1` [Example 1020], the IC50 in experiment [1] was 100 to 250 nM; in experiment [2] (setting [3]) it was no more than 100 nM.

Consider `C#Cc1cc(OC)c(-c2c(C3=CC[C@@H](C(=O)N4CCC[C@H]4C)CC3)c3c(N)ncnc3n2C)cn1` [Example 1354], for which the results for the IC50 in experiment [1] and in experiment [2] (setting [3]) were less than 100 nM and no more than 100 nM, respectively.

Take `C=CS(=O)(=O)N1CC[C@@H](c2c(-c3ccc(C(=O)N4CCCC4)cc3)c3c(N)ncnc3n2C)C1` (single isomer, unassigned) [Example 864]: the IC50 in experiment [1] was less than 100 nM; in experiment [2] (setting [3]), 100 to 250 nM.

On to `C=C1CCN(c2ccc(-c3c(-c4ccc(Oc5nccc(C)n5)cc4)c4c(N)ncnc4n3C)cc2)C1=O` [Example 1060], for which the IC50 in experiment [1] and in experiment [2] (setting [3]) was 1000 to 100000 nM each time.

Turning to `C=CC(=O)N[C@@H]1C[C@H]1c1c(-c2ccc(C(=O)N3CCCC3)cc2)c2c(N)ncnc2n1C` (single isomer, unassigned) [Example 974], the IC50 in experiment [1] and in experiment [2] (setting [3]) was 1000 to 100000 nM in each case.

For the compound `Cc1ccnc(Oc2ccc(-c3c([C@@H]4CCN(C(=O)CCl)C4)n(C)c4ncnc(N)c34)cc2)n1` (single isomer, unassigned) [Example 875], the IC50 in experiment [1] and in experiment [2] (setting [3]) was 250 to 1000 nM each time.

On to `C#Cc1ccc(-c2c(-c3ccc(Oc4nccc(C)n4)c(F)c3)c3cncnc3n2C)c(C)n1` [Example 1183], for which the IC50 in experiment [1] was less than 100 nM; in experiment [2] (setting [3]) it was no more than 100 nM.

On to `C#Cc1cc2c(cn1)-c1c(-c3ccc(Oc4nccc(C)n4)c(F)c3)c3c(N)ncnc3n1[C@H](C)CO2` [Example 1441], for which the IC50 was 250 to 1000 nM in experiment [1] and 100 to 250 nM in experiment [2] (setting [3]).

Consider `C#Cc1cc(C)c(-c2c(-c3ccc(C(=O)NC4CCC4)c(OC)c3)c3c(N)ncnc3n2C)cn1` [Example 1143], for which the IC50 lay within 1000 to 100000 nM in experiment [1] and 250 to 1000 nM in experiment [2] (setting [3]).

Take `C#Cc1cc(C)c(-c2c(C3=CC[C@@]4(CC3)Cc3ccc(C)nc3O4)c3c(N)ncnc3n2C)cn1` [Example 1393]: the IC50 in experiment [1] and in experiment [2] (setting [3]) was 1000 to 100000 nM each time.

For the compound `C#Cc1cc(OC)c(-c2c(C3=CC[C@@H](C(=O)N4CCC[C@H]4C#N)CC3)c3c(C)ncnc3n2C)c(C)n1` [Example 1475], the IC50 in experiment [1] and in experiment [2] (SNU-16 cells) was 1000 to 100000 nM throughout.

Regarding `C=C(C)C(=O)Nc1ccc(-c2c(-c3ccc(-n4cc(CC)cn4)nc3)c3c(N)ncnc3n2C)cc1` [Example 1316], the IC50 in experiment [1] and in experiment [2] (setting [3]) was 250 to 1000 nM throughout.

As to `C#Cc1cc(F)c(-c2c(-c3ccc(Oc4nccc(C)n4)c(F)c3)c3c(C)ncnc3n2C)cn1` [Example 1375], the IC50 was less than 100 nM in experiment [1] and no more than 100 nM in experiment [2] (setting [3]).

On to `C#Cc1cc(C)c(-c2c(-c3ccc(Oc4nccc(C)n4)cn3)c3c(N)ncnc3n2C)cn1` [Example 1327], for which the IC50 in experiment [1] is less than 100 nM; in experiment [2] (setting [3]), no more than 100 nM.

Regarding `C=C(C)C(=O)Nc1ccc(-c2c(C3=CC[C@H](C(=O)N4CC[C@@H]5C[C@@H]54)CC3)c3c(N)ncnc3n2C)cc1` (single isomer, unassigned) [Example 1038], the IC50 in experiment [1] was less than 100 nM; in experiment [2] (setting [3]), no more than 100 nM.

On to `C=C(C)C(=O)Nc1ccc(-c2c(-n3ccc(C(=O)N4CCCC4)cc3=O)c3c(N)ncnc3n2C)cc1` [Example 898], for which the half-maximal inhibitory concentration (IC50) in experiment [1] is less than 100 nM; in experiment [2] (setting [3]) it was no more than 100 nM.

As to `C=C(C)C(=O)Nc1ccc(-c2c(C3=CC[C@@H](C(=O)N4CCC[C@]45CCOC5)CC3)c3c(N)ncnc3n2C)cc1` (single isomer, unassigned) [Example 954], the IC50 in experiment [1] was less than 100 nM; in experiment [2] (SNU-16 cells) it was no more than 100 nM.

`C=CC(=O)N1C[C@@H](O)[C@@H](c2c(-c3ccc(Oc4cccc(C)n4)cc3)c3c(N)ncnc3n2C)C1` [Example 807]: the IC50 in experiment [1] and in experiment [2] (setting [3]) was 250 to 1000 nM throughout.

`C=C(C)C(=O)Nc1ccc(-c2c(C3=CC[C@]4(CC3)Cc3ccc(C)nc3C4=O)c3c(N)ncnc3n2C)cc1` (single isomer, unassigned) [Example 1367]: the IC50 in experiment [1] was less than 100 nM; in experiment [2] (setting [3]), no more than 100 nM.
